The values that follow come from patent US20140206678A1, “INHIBITORS OF MTOR KINASE AS ANTI -VIRAL AGENT” (KADMON CORPORATION, LLC, priority 2011, published 2014).

Entries after “also recorded” stand apart in the source; their conditions may differ.

Usually IC50 stands for the concentration that inhibits the measured activity by half.

Series [1] deals with HCMV strain AD169. As to the kind of experiment: HCMV AD169 replication in human fibroblasts with 4-PBA alone or with mTOR inhibitors, TCID50. It counts as cell-based, human cytomegalovirus.
The test system of series [2] is confluent human fibroblasts. As to the kind of experiment: Trypan blue exclusion viability of confluent human fibroblasts (4-PBA). It counts as cell-based. Conditions: highest dose tested; eight days. The method, then:
FIG. 11. 4-PBA is not toxic to uninfected or infected confluent human fibroblasts. (A) Fibroblasts were maintained in medium containing the indicated concentrations of 4-PBA for 8 days. The medium was replaced every other day throughout the time course. At the end of the treatment period, cell viability was measured by the trypan blue exclusion assay. Date points represent the mean of duplicate wells. (B) Fibroblasts were infected with HCMV at a multiplicity of 0.1 pfu/cell. Cells were fed every other day with fresh medium containing the indicated concentration of 4-PBA. At eight days post infection, cells were washed once with media, and then media lacking drug was added. Eight days later (16 days post infection) cell free virus in the supernatant was quantitated by the TCID50 method. Date points represent the mean of duplicate wells.
Two experiments were performed to rule out the possibility that 4-PBA is simply toxic to the cells and inhibits HCMV indirectly by reducing cell viability (FIG. 11). In the first experiment (FIG. 11A) an assay for cell viability was performed on confluent human fibroblasts treated for eight days with different concentrations of the drug. The highest dose of the drug tested had no effect on cellular viability in the trypan blue exclusion assay. […] Then the drug was removed and the yield of virus was determined 8 days later.

In series [3] the test system is HCMV. The series can be described thus: HCMV yield in MRC5 fibroblasts at 96 hours post-infection (mTOR inhibitors). It counts as cell-based, human cytomegalovirus. The conditions noted are these: 0.5 pfu/cell, up to 5 μM.
Series [4] concerns PI3Ks. Conditions: cited from earlier work.
Series [5] has as its target mTOR (Homo sapiens, UniProt P42345). The conditions noted are these: read-out: IC50 (selective mTOR inhibitors); cited from earlier work.
For series [6], the system named is panel of 140 protein kinases. Conditions: read-out: IC50 against panel of 140 protein kinases; cited from earlier work.
The test system of series [7] is HCMV. As to the kind of experiment: HCMV multistep growth in serum-starved human fibroblasts, cell-free virus by TCID50. It counts as cell-based, human cytomegalovirus. The conditions noted are these: day 10; rapamycin 20 nM, Torin1 250 nM; 0.05 PFU/cell.
In series [8] the test system is MCMV. As to the kind of experiment: MCMV replication in mouse embryo fibroblasts, TCID50. The conditions noted are these: wild-type MEFs; rapamycin 20 nM, Torin1 250 nM; 0.05 PFU/cell. It counts as cell-based, murine cytomegalovirus.

For `O=C([O-])CCCc1ccccc1.[Na+]` [4-PBA, sodium 4-phenylbutyrate], the “virus yield 8 days after drug removal” value in series [1] (all doses tested, 8-day treatment, 16 days post infection) is “recovered and produced a normal yield”. Moreover, the HCMV virus replication entry in series [1] (dose-dependent, day 8 post infection, 0.1 pfu/cell) is on record as “effectively inhibited; also recorded: inhibited virus production”. In addition, the “cellular viability, trypan blue exclusion assay” value in series [2] is “no effect”.
For the molecule `Cn1c(=O)n(-c2ccc(C(C)(C)C#N)cc2)c2c3cc(-c4cnc5ccccc5c4)ccc3ncc21` [BEZ235], the “HCMV virus production (yield as percentage of untreated cells)” value in series [3] is “inhibit virus production”.
On to `CC(C)n1nc(-c2ccc3oc(N)nc3c2)c2c(N)ncnc21` [INK128], for which the “HCMV virus production (yield as percentage of untreated cells)” value in series [3] is reported as “inhibit virus production”.
As for `COc1cc(-c2cn(-c3nc(N4CCOCC4)nc(N4CCOCC4)n3)cn2)cc(OC)c1O` [KU-BMCL-200908069-5], in series [4], the “fold selective versus PI3Ks (PI3K)” value is given as greater than 500 fold.
As for `CNC(=O)Nc1ccc(-c2nc(N3C[C@H]4CC[C@@H](C3)O4)c3cnn(C4CCC5(CC4)OCCO5)c3n2)cc1` [WYE-125132], the IC50 in series [5] was 0.19 nM. Besides, the “fold selective versus PI3Ks (PI3K)” value in series [4] is recorded as > 5,000 fold.
As to `O=C(Nc1ccc(-c2nc(N3CC4CCC(C3)O4)c3sccc3n2)cc1)NC1CC1` [Wyeth-BMCL-200910075-9b], in series [5], the IC50 was 0.7 nM. In addition, the “fold selective versus PI3Ks (PI3K)” value in series [4] was > 1,000 fold.
`CN1CCN(C(=O)c2ccc(NC(=O)Nc3ccc(-c4nc(N5CCOCC5)cc(N5C[C@H]6CC[C@@H](C5)O6)n4)cc3)cc2)CC1` [Wyeth—Compound 27]: in series [3], the “HCMV virus production (yield as percentage of untreated cells)” value is on record as “inhibit virus production”.
For `Cc1c(C(=O)N2CCOc3ccc(-c4ccc(N)nc4)cc3C2)ccc(S(C)(=O)=O)c1F` [XL388], the concentration for half-maximal inhibition (IC50) in series [6] was greater than 3000 nM.
Regarding `CO[C@H]1C[C@@H]2CC[C@@H](C)[C@@](O)(O2)C(=O)C(=O)N2CCCC[C@H]2C(=O)O[C@H]([C@H](C)C[C@@H]2CC[C@@H](O)[C@H](OC)C2)CC(=O)[C@H](C)/C=C(\C)[C@@H](O)[C@@H](OC)C(=O)[C@H](C)C[C@H](C)/C=C/C=C/C=C/1C` [rapamycin], the “reduction of HCMV yield” value in series [7] is listed as roughly 8 fold. Also, the MCMV replication entry in series [8] is given as “no inhibitory effect”.
